What all share (experiment): Fluorescence polarization SH3 domain-PRP binding
Holding throughout (settings): FP, 0.2 µM fluorescein-labeled peptide, SH3 domain 0-200 µM, Tris/HCl pH 7.5, 25 °C, quadratic fit
Background: In fluorescence polarisation assays a small probe gives low polarisation when free and higher when bound to something large.

In experiment [1] the target is T1, SH3PXD2A-1 SH3 domain (aa 166-225) (Homo sapiens, UniProt Q5TCZ1).
T1 construct: 166-225; GST (N); made in house; host or cells: Escherichia coli CodonPlus, Rosetta, BL21(DE3)
T1 sequence (Q5TCZ1 166-225): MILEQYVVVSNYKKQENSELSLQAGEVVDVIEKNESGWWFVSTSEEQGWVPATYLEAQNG
Put shortly:
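FP titration: 0.2 µM fluorescent PRP + GST-SH3 0–200 µM; 30 mM Tris/HCl pH 7.5, 5 mM MgCl2, 3 mM DTT, 25 °C. Ex 470/em 560 nm. Kd by quadratic binding-equation fit; errors from fitting.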

Experiment [2] deals with T2, ARHGAP12 SH3 domain (aa 12-74) (Homo sapiens, UniProt Q8IWW6).
T2 construct: 12-74; GST (N); made in house; host or cells: Escherichia coli CodonPlus, Rosetta, BL21(DE3)
T2 sequence (Q8IWW6 12-74): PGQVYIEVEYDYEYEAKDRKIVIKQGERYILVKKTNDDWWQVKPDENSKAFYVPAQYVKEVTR
Here is the method: (§1) The interaction between fluorescein-labeled proline-rich peptides (0.2 µM) and increasing concentrations of SH3 domains (ranging from 0 to 200 µM) was measured in a buffer (containing 30 mM Tris/HCl (pH 7.5), 5 mM MgCl2, and 3 mM DTT at 25 °C) in a total volume of 200 µL using a Fluoromax 4 fluorimeter in polarization mode and a quartz glass fluorescence cuvette (Hellma Ultra-Micro Cuvette 105.250-QS, Thermo Fisher Scientific, Waltham, MA USA). Excitation was performed at 470 nm and emission was measured at 560 nm. Dissociation constants (Kd) were determined by fitting the concentration-dependent binding curve to a quadratic ligand binding equation.
(§2) Fluorescence polarization measurements were performed to determine the binding affinities of SH3 domain–PRP interaction pairs from the dot blot analysis. SH3 proteins were titrated at increasing concentrations against fluorescent PRPs, which were kept at a constant concentration of 0.2 µM. GRB2-2^W193K, which is defective in the binding of PRPs such as RP1, was used as a negative control as previously described. […] The resulting data (Figure S6) allowed the evaluation of equilibrium dissociation constants (Kd) for 45 interactions between the SH3 domains and the PRPs (Figure 2B; Table S6).
(§3) Figure S6. Interactions of the SH3 domains with fluorescent PRPs measured by fluorescence polarization.
(§4) Fluorescent peptides (0.2 µM) were titrated with increasing concentrations of the corresponding SH3 domains.
(§5) GRB2-2W193K, defective in the binding of PRPs such as RP1, was used as a negative control as previously described. The x-axis represents SH3 domain concentrations as GST fusion proteins in µM, while the y-axis represents fluorescence polarization. The equilibrium dissociation constants (Kd) for the respective measurements were determined by fitting the titration curves to a quadratic ligand-binding equation (solid lines). All Kd values are […]
(§6) Error bars are derived from the fitting errors.
(§7) (1 picture or pasted object on this page, not shown here)

Experiment [3] deals with T3, ABI1 SH3 domain (aa 446-505) (Homo sapiens, UniProt Q8IZP0).
T3 construct: 446-505; GST (N); made in house; host or cells: Escherichia coli CodonPlus, Rosetta, BL21(DE3)
Here is the method: as §1, §2, §3, §4, §5, §6, §7

Experiment [4] deals with T4, ITSN1-1 SH3 domain (aa 740-806) (Homo sapiens, UniProt Q15811).
T4 construct: 740-806; GST (N); made in house; host or cells: Escherichia coli CodonPlus, Rosetta, BL21(DE3)
T4 sequence (Q15811 740-806): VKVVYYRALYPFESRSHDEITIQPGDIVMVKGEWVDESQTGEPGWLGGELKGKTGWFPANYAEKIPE
Here is the method:
as §1, §2, §3, §4, §5, §6, §7

The target in experiment [5] is T5, ITSN1-2 SH3 domain (aa 913-971) (Homo sapiens, UniProt Q15811).
T5 construct: 913-971; GST (N); made in house; host or cells: Escherichia coli CodonPlus, Rosetta, BL21(DE3)
T5 sequence (Q15811 913-971): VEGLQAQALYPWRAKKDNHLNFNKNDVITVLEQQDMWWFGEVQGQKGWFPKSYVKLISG
Here is the method:
as §1, §2, §3, §4, §5, §6, §7

Experiment [6] concerns the target T6, ABL2 SH3 domain (aa 107-167) (Homo sapiens, UniProt P42684).
T6 construct: 107-167; GST (N); made in house; host or cells: Escherichia coli CodonPlus, Rosetta, BL21(DE3)
As for the experimental part: as §1, §2, §3, §4, §5, §6, §7

The target in experiment [7] is T7, ARHGEF30 (OBSCN) SH3 domain (aa 5600-5667) (Homo sapiens, UniProt Q5VST9).
T7 construct: 5600-5667; GST (N); made in house; host or cells: Escherichia coli CodonPlus, Rosetta, BL21(DE3)
T7 sequence (Q5VST9 5600-5667): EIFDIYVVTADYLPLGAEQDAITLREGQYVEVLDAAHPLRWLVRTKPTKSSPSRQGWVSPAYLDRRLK
As for the experimental part:
as §1, §2, §3, §4, §5, §6, §7

Experiment [8] has as its target T8, DLG2 SH3 domain (aa 536-606) (Homo sapiens, UniProt Q15700).
T8 construct: 536-606; GST (N); made in house; host or cells: Escherichia coli CodonPlus, Rosetta, BL21(DE3)
T8 sequence (Q15700 536-606): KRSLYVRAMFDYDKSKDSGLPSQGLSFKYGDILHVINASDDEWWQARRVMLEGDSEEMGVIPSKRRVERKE
As for the experimental part: as §1, §2, §3, §4, §5, §6, §7

Experiment [9] has as its target T9, BIN1 SH3 domain (aa 520-593) (Homo sapiens, UniProt O00499).
T9 construct: 520-593; GST (N); made in house; host or cells: Escherichia coli CodonPlus, Rosetta, BL21(DE3)
T9 sequence (O00499 520-593): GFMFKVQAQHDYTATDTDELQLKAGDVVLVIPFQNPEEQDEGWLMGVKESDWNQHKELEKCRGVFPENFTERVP
As for the experimental part:
as §1, §2, §3, §4, §5, §6, §7

The target of experiment [10] is T10, CRK-1 SH3 domain (aa 132-192) (Homo sapiens, UniProt P46108).
T10 construct: 132-192; GST (N); made in house; host or cells: Escherichia coli CodonPlus, Rosetta, BL21(DE3)
Here is the method: as §1, §2, §3, §4, §5, §6, §7

Experiment [11] addresses T11, GRB2-1 SH3 domain (aa 1-58) (Homo sapiens, UniProt P62993).
T11 construct: 1-58; GST (N); made in house; host or cells: Escherichia coli CodonPlus, Rosetta, BL21(DE3)
As for the experimental part:
as §1, §2, §3, §4, §5, §6, §7

Experiment [12] deals with T12, ITSN1-3 SH3 domain (aa 1002-1060) (Homo sapiens, UniProt Q15811).
T12 construct: 1002-1060; GST (N); made in house; host or cells: Escherichia coli CodonPlus, Rosetta, BL21(DE3)
T12 sequence (Q15811 1002-1060): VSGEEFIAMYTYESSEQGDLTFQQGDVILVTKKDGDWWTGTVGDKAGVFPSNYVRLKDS
Here is the method: as §1, §2, §3, §4, §5, §6, §7

“And” between values parts separate entries of the source, which are not always exact repeats. Identical values can stand only once. Peptide text beside a SMILES is read from it.

T6 sequence (P42684 107-167): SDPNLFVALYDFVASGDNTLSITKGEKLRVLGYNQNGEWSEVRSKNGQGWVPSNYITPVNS
T10 sequence (P46108 132-192): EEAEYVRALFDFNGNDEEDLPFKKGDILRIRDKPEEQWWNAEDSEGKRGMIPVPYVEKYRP
T11 sequence (P62993 1-58): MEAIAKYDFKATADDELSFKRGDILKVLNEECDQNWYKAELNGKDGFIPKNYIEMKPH
T3 sequence (Q8IZP0 446-505): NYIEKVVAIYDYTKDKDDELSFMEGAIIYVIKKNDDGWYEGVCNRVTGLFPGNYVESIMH

Take `CC[C@H](C)[C@H](N)C(=O)N[C@@H](CO)C(=O)N[C@@H](CC(=O)O)C(=O)N1CCC[C@H]1C(=O)N1CCC[C@H]1C(=O)N[C@@H](CCC(=O)O)C(=O)N[C@@H](CO)C(=O)N1CCC[C@H]1C(=O)N1CCC[C@H]1C(=O)N[C@@H](CC(C)C)C(=O)N[C@@H](CC(C)C)C(=O)N1CCC[C@H]1C(=O)N1CCC[C@H]1C(=O)N[C@@H](CCCNC(=N)N)C(=O)N[C@@H](CCC(=O)O)C(=O)N1CCC[C@H]1C(=O)N[C@H](C(=O)N[C@@H](CCCNC(=N)N)C(=O)N[C@H](C(=O)N1CCC[C@H]1C(=O)N[C@@H](CC(=O)O)C(=O)N[C@H](C(=O)O)C(C)C)[C@@H](C)O)C(C)C` [Peptide P5] (H-ISDPPESPPLLPPREPVRTPDV-OH): the dissociation constant (Kd) in experiment [1], in experiment [2], in experiment [3], in [4], in [5] and in experiment [6] was above 200 µM throughout. Moreover, the Kd in experiment [7] was above 200 µM; in [8], above 200 µM; in experiment [9], above 200 µM; in experiment [10], above 200 µM; in [11] it was 62 µM; in experiment [12], above 200 µM.

With `C[C@H](N)C(=O)N[C@@H](Cc1ccccc1)C(=O)N[C@@H](Cc1ccccc1)C(=O)N1CCC[C@H]1C(=O)N[C@@H](CC(N)=O)C(=O)N[C@@H](CO)C(=O)N1CCC[C@H]1C(=O)N[C@@H](CO)C(=O)N1CCC[C@H]1C(=O)N[C@@H](Cc1ccccc1)C(=O)N[C@H](C(=O)N1CCC[C@H]1C(=O)N1CCC[C@H]1C(=O)N1CCC[C@H]1C(=O)N1CCC[C@H]1C(=O)N[C@@H](CCC(N)=O)C(=O)N[C@H](C(=O)N1CCC[C@H]1C(=O)N[C@@H](CO)C(=O)N1CCC[C@H]1C(=O)N[C@@H](Cc1c[nH]cn1)C(=O)NCC(=O)N[C@H](C(=O)O)[C@@H](C)O)[C@@H](C)O)[C@@H](C)O` [Peptide P7] (H-AFFPNSPSPFTPPPPQTPSPHGT-OH), the Kd is above 200 µM in experiment [1]; 0.2 µM and < 0.5 µM in experiment [2]; above 200 µM in experiment [3]; above 200 µM in experiment [4]; above 200 µM in experiment [5]; 67.3 µM in experiment [6]. The Kd in experiment [7] was 8.9 µM; in experiment [8], 58.5 µM; in [9], 12 µM; in experiment [10], 18.1 µM; in experiment [11] it was above 200 µM; in experiment [12], above 200 µM.

Consider `CC(C)[C@H](N)C(=O)N1CCC[C@H]1C(=O)N[C@H](C(=O)N1CCC[C@H]1C(=O)N1CCC[C@H]1C(=O)N1CCC[C@H]1C(=O)N[C@H](C(=O)N1CCC[C@H]1C(=O)N1CCC[C@H]1C(=O)N[C@@H](CCCNC(=N)N)C(=O)N[C@@H](CCCNC(=N)N)C(=O)N[C@@H](CCCNC(=N)N)C(=O)O)C(C)C)C(C)C` [RP1, reference compound], for which the Kd in [1] was above 200 µM; in experiment [2] it was 16.7 µM; in experiment [3], above 200 µM; in experiment [4] it was 39 µM; in [5], above 200 µM; in experiment [6] it was 11 µM. Moreover, the dissociation constant Kd was above 200 µM in [7]; above 200 µM in [8]; above 200 µM in experiment [9]; above 200 µM in [10]; 11 µM in experiment [11]; above 200 µM in experiment [12].

Consider `CC(C)C[C@H](NC(=O)[C@@H]1CCCN1C(=O)[C@@H]1CCCN1C(=O)[C@H](CO)NC(=O)[C@@H]1CCCN1C(=O)[C@H](CC(C)C)NC(=O)[C@H](Cc1c[nH]cn1)NC(=O)[C@@H](N)CCCNC(=N)N)C(=O)N[C@H](C(=O)N[C@@H](CCC(N)=O)C(=O)O)[C@@H](C)O` [Peptide P8] (H-RHLPSPPLTQ-OH; N-terminus and C-terminus assumed), for which the Kd in [1], in experiment [2], in experiment [3], in [4], in [5] and in experiment [6] was above 200 µM each time. The Kd in experiment [7], in experiment [8], in experiment [9], in [10], in experiment [11] and in experiment [12] was above 200 µM throughout.

In the case of `CC[C@H](C)[C@H](NC(=O)[C@H](Cc1c[nH]cn1)NC(=O)[C@@H](N)CCC(N)=O)C(=O)N1CCC[C@H]1C(=O)N[C@@H](CCCCN)C(=O)N[C@@H](CC(C)C)C(=O)N1CCC[C@H]1C(=O)N1CCC[C@H]1C(=O)N[C@@H](CCCCN)C(=O)N[C@H](C(=O)N[C@@H](Cc1ccc(O)cc1)C(=O)O)[C@@H](C)O` [Peptide P10] (H-QHIPKLPPKTY-OH; N-terminus and C-terminus assumed), the dissociation constant (Kd) in experiment [1], in [2], in experiment [3], in experiment [4], in experiment [5] and in experiment [6] was above 200 µM throughout. In addition, the Kd in [7], in [8], in experiment [9], in experiment [10], in experiment [11] and in experiment [12] was above 200 µM throughout.

The term Kd denotes the free concentration of one partner at which half of the binding sites on the other are occupied at equilibrium, for simple one-to-one binding. A higher Kd goes with a looser complex.

Source of the values: paper PMC10814857, “Functional Classification and Interaction Selectivity Landscape of the Human SH3 Domain Superfamily” (Cells, 2024).
